From patent US20240269139A1, “COMPOUNDS FOR TARGETED PROTEIN DEGRADATION OF KINASES” (DANA-FARBER CANCER INSTITUTE, INC., priority 2020, published 2024) come the findings set out here.

Type in all cases: cell-based
Experiment [1] concerns the target protein kinases (human kinome) (Homo sapiens, UniProt Q15118). The conditions noted are these: PDK1 Q15118.
In experiment [2] the target is T1, protein kinases (human kinome) (Homo sapiens, UniProt Q14CZ7).
T1 sequence (Q14CZ7 1-662): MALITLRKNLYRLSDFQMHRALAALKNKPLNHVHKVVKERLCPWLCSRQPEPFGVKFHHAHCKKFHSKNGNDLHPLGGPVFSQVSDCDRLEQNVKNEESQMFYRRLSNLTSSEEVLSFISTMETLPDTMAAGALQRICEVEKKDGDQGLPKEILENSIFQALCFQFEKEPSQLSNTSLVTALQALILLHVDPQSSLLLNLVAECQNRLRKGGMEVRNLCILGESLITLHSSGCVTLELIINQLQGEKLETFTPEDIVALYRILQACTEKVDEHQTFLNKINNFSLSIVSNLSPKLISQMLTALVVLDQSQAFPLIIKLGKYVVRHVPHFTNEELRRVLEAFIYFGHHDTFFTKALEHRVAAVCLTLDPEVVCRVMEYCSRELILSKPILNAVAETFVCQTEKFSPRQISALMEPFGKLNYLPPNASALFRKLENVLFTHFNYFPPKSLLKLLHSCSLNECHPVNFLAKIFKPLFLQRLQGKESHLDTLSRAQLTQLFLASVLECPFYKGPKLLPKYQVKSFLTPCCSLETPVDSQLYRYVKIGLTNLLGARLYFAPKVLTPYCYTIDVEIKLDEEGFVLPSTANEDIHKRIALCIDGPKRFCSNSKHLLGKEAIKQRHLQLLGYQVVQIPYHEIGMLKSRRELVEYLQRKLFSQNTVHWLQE
The conditions noted are these: Accession Q14CZ7, direction down.

For experiment [3], the target named is T2, protein kinases (human kinome) (Homo sapiens, UniProt Q12851).
T2 sequence (Q12851 1-820): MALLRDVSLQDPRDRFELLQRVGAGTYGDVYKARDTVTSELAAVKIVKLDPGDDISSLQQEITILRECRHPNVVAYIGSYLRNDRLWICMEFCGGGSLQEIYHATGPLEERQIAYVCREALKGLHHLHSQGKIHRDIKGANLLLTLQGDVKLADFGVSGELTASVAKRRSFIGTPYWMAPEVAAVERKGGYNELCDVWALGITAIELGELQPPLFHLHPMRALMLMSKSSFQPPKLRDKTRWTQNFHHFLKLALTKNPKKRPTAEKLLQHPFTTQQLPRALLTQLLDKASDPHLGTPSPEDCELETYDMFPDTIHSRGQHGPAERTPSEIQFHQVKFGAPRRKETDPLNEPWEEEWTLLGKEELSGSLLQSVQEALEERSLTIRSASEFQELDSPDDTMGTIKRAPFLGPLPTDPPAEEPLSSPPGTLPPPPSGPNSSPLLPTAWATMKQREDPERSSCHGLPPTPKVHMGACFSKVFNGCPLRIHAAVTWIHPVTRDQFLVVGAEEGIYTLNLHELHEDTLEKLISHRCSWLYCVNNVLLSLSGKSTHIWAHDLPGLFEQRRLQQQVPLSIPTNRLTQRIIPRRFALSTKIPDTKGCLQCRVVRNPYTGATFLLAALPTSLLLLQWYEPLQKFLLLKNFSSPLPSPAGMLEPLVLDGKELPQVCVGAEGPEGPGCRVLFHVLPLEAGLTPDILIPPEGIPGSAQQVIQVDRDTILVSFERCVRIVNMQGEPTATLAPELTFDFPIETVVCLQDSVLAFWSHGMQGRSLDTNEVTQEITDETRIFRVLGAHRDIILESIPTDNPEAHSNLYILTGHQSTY
The conditions noted are these: for logFC MAP4K2 (Q12851): direction down; for logFC: MAP4K2 (Q12851).

Read-outs that look alike come from different tables or passages of the source.

Chain of protein kinases (human kinome) (Homo sapiens, UniProt Q15118) (Q15118 29-436): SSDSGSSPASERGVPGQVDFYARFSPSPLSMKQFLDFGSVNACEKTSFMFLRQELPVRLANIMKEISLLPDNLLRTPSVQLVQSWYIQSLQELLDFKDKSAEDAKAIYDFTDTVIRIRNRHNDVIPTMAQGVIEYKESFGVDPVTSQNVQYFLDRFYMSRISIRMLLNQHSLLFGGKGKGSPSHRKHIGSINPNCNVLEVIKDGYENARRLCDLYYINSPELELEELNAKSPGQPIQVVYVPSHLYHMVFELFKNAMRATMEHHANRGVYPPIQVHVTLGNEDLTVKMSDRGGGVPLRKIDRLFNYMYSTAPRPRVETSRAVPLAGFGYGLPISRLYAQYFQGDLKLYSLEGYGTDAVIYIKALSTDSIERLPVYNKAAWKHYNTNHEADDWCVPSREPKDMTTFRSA

As to `CC(C)(C)c1nc(-c2cccc(NS(=O)(=O)c3c(F)cccc3F)c2F)c(-c2ccnc(NCCOCCNC(=O)CCOCCOCCNc3cccc4c3CN(C3CCC(=O)NC3=O)C4=O)n2)s1` (centres unmarked) [DD.03.107], the logFC in experiment [1] (experiment wp147, 1 uM) is reported as −0.4722; in experiment [1] (experiment wp147, 2 uM), −0.4534; in experiment [1] (experiment wp147, 4 uM), −1.108. The “logFC PDK1” value in experiment [1] (experiment wp147, 1 uM) is listed as −0.4722; in experiment [1] (experiment wp147, 2 uM) it was −0.4534; in experiment [1] (experiment wp147, 4 uM) it was −1.108. Besides, the “logFC FASTKD3” value is −0.6939 in experiment [2] (experiment wp147, 1 uM); −0.6931 in experiment [2] (experiment wp147, 2 uM); −1.191 in experiment [2] (experiment wp147, 4 uM).

As for `CC(C)S(=O)(=O)c1ccccc1Nc1nc(Nc2ccc(N3CCN(CCOCCOCCNC(=O)CNc4cccc5c4C(=O)N(C4CCC(=O)NC4=O)C5=O)CC3)cc2)ncc1Cl` (centres unmarked) [TL12.186], the “logFC FASTKD3” value in experiment [2] (experiment wp137) is recorded as −0.6244.

As for `Cc1ccc(NC(=O)c2cccc(C(F)(F)F)c2)cc1N1Cc2cnc(Nc3ccc(N4CCN(CCCCC(=O)N[C@H](C(=O)N5C[C@H](O)C[C@H]5C(=O)N[C@@H](C)c5ccc(-c6scnc6C)cc5)C(C)(C)C)CC4)nc3)nc2N(C)C1=O` [DB1113], the “logFC MAP4K2 (Q12851)” value in experiment [3] (Experiment wp168) was −2.432. Also, in experiment [3] (experiment wp168), the logFC is listed as −2.432.

Consider `CC(C)(C)c1nc(-c2cccc(NS(=O)(=O)c3c(F)cccc3F)c2F)c(-c2ccnc(NCCOCCNC(=O)CCOCCOCCNc3cccc4c3C(=O)N(C3CCC(=O)NC3=O)C4=O)n2)s1` (centres unmarked) [DD.03.106], for which the logFC in experiment [1] (experiment wp147, 1 uM) is given as −0.3363; in experiment [1] (experiment wp147, 4 uM) it was −0.6592. The “logFC PDK1” value in experiment [1] (experiment wp147, 1 uM) is −0.3363; in experiment [1] (experiment wp147, 4 uM), −0.6592. In addition, in experiment [2] (experiment wp147, 4 uM), the “logFC FASTKD3” value is listed as −0.8259.

Regarding `Cc1ccc(C(=O)Nc2ccc(CN3CCN(CCOCCOCCNC(=O)CNc4cccc5c4C(=O)N(C4CCC(=O)NC4=O)C5=O)CC3)c(C(F)(F)F)c2)cc1C#Cc1cnc2cccnn12` (centres unmarked) [TL13.150], the “logFC MAP4K2 (Q12851)” value in experiment [3] (Experiment wp081) is −1.088. This compound came in with a logFC in experiment [3] (experiment wp081) of −1.088.

As to `Cc1ncsc1-c1ccc([C@H](C)NC(=O)[C@@H]2C[C@@H](O)CN2C(=O)[C@@H](NC(=O)CCOCCOCCN2CCN(c3ccc(Nc4ncc(Cl)c(Nc5ccccc5S(=O)(=O)C(C)C)n4)cc3)CC2)C(C)(C)C)cc1` [FMF.06.098.1], the results for the “logFC MAP4K2 (Q12851)” value in experiment [3] (Experiment wp108) and in experiment [3] (Experiment wp131) were −0.5507 and −0.6092, respectively. The logFC in experiment [3] (experiment wp108) is reported as −0.5507; in experiment [3] (experiment wp131) it was −0.6092.

Turning to `CN(C)C(=O)c1cc2cnc(Nc3ccc(N4CCN(CCCCNC(=O)COc5cccc6c5C(=O)N(C5CCC(=O)NC5=O)C6=O)CC4)cn3)nc2n1C1CCCC1` (centres unmarked) [BSJ.04.132], in experiment [1] (experiment wp084), the logFC was −0.7569 and the “logFC PDK1” value is −0.7569. Besides, in experiment [2] (experiment wp084), the “logFC FASTKD3” value is given as −0.5428.

For the compound `Cc1ccc(NC(=O)c2cccc(C(F)(F)F)c2)cc1N1Cc2cnc(Nc3ccc(N4CCN(Cc5cn(CCCCCOc6cccc7c6C(=O)N(C6CCC(=O)NC6=O)C7=O)nn5)CC4)nc3)nc2N(C)C1=O` (centres unmarked) [DB0646, N-(3-(7-((6-(4-((1-(5-((2-(2,6-Dioxopiperidin-3-yl)-1,3-dioxoisoindolin-4-yl)oxy)pentyl)-1H-1,2,3-triazol-4-yl)methyl)piperazin-1-v)pyridin-3-yl)amino)-1-methyl-2-oxo-1,4-dihydropyrimido[4,5-d]pyrimidin-3(2H)-yl)-4-methylphenyl)-3-(trifluoromethyl)benzamide], in experiment [2] (experiment wp152), the “logFC FASTKD3” value is −0.3418. The “logFC MAP4K2 (Q12851)” value in experiment [3] (Experiment wp045) is on record as −0.7569; in experiment [3] (Experiment wp103) it was −0.4625; in experiment [3] (Experiment wp107) it was −0.6245; in experiment [3] (Experiment wp117) it was −0.5616; in experiment [3] (Experiment wp152), −0.7981; in experiment [3] (Experiment wp160, 4 hr) it was −0.6132. Moreover, the “logFC MAP4K2 (Q12851)” value in experiment [3] (Experiment wp160, 8 hr) is −1.155. Moreover, the logFC in experiment [3] (experiment wp045) is −0.7569; in experiment [3] (experiment wp103), −0.4625; in experiment [3] (experiment wp107) it was −0.6245; in experiment [3] (experiment wp117), −0.5616; in experiment [3] (experiment wp152) it was −0.7981; in experiment [3] (experiment wp160, 4 hr) it was −0.6132. The compound also registered a logFC in experiment [3] (experiment wp160, 8 hr) of −1.155.

Regarding `Cc1ccc(NC(=O)c2cccc(C(F)(F)F)c2)cc1N1Cc2cnc(Nc3ccc(N4CCN(CCCCCCOc5cccc6c5C(=O)N(C5CCC(=O)NC5=O)C6=O)CC4)nc3)nc2N(C)C1=O` (centres unmarked) [DB0663], in experiment [3] (Experiment wp046), the “logFC MAP4K2 (Q12851)” value was −0.3823. Also, the logFC in experiment [3] (experiment wp045) is −0.3823.

In the case of `O=C(COc1cccc2c1C(=O)N(C1CCC(=O)NC1=O)C2=O)NCCCCCCCC(=O)NC1(c2ccc(-c3nc4ccn5c(=O)[nH]nc5c4cc3-c3ccccc3)cc2)CCC1` (centres unmarked) [INY.01.140.1], in experiment [1] (experiment wp081), the logFC is −0.4328 and the “logFC PDK1” value is on record as −0.4328. In experiment [2] (experiment wp081), the “logFC FASTKD3” value was −0.3846.

With `Cc1ccc(C(=O)Nc2ccc(CN3CCN(CCCOCCOCCOCCNC(=O)COc4cccc5c4C(=O)N(C4CCC(=O)NC4=O)C5=O)CC3)c(C(F)(F)F)c2)cc1C#Cc1cnc2cccnn12` (centres unmarked) [SB1.G.187], the logFC is reported as −0.4134 in experiment [1] (experiment wp056); −1.847 in experiment [3] (experiment wp056); −1.79 in experiment [3] (experiment wp103); −1.757 in experiment [3] (experiment wp105); −2.048 in experiment [3] (experiment wp107); −0.7516 in experiment [3] (experiment wp114). In addition, in experiment [1] (experiment wp056), the “logFC PDK1” value was −0.4134. Further, the “logFC MAP4K2 (Q12851)” value in experiment [3] (Experiment wp056) is on record as −1.847; in experiment [3] (Experiment wp103) it was −1.79; in experiment [3] (Experiment wp105), −1.757; in experiment [3] (Experiment wp107) it was −2.048; in experiment [3] (Experiment wp114), −0.7516.

In the case of `C=CCn1c(=O)c2cnc(Nc3ccc(N4CCN(CCCNc5cccc6c5C(=O)N(C5CCC(=O)NC5=O)C6=O)CC4)cc3)nc2n1-c1cccc(C(C)(C)O)n1` (centres unmarked) [ZNL.02.096], in experiment [1] (experiment wp056), the logFC is −0.3685 and the “logFC PDK1” value is given as −0.3685. The “logFC FASTKD3” value in experiment [2] (experiment wp056) was −0.7131.

For the compound `Cc1cnc(Nc2ccc(N3CCN(CCOCCOCCNC(=O)COc4cccc5c4C(=O)N(C4CCC(=O)NC4=O)C5=O)CC3)cc2)nc1Nc1cccc(S(=O)(=O)NC(C)(C)C)c1` (centres unmarked) [JWG.118], the “logFC FASTKD3” value in experiment [2] (experiment wp071) was −0.4386.

Take `CC(C)S(=O)(=O)c1ccccc1Nc1nc(Nc2ccc(N3CCN(CCOCCNC(=O)CNc4cccc5c4C(=O)N(C4CCC(=O)NC4=O)C5=O)CC3)cc2)ncc1Cl` (centres unmarked) [SK.3.91]: the “logFC FASTKD3” value in experiment [2] (experiment wp160, 1 hr) was −0.997.

As for `Cn1c(=O)c(-c2c(Cl)cccc2Cl)cc2cnc(Nc3ccc(OCCNC(=O)CCCCCCNC(=O)COc4cccc5c4C(=O)N(C4CCC(=O)NC4=O)C5=O)cc3)nc21` (centres unmarked) [SB1.G.192.1], in experiment [1] (experiment wp081), the logFC is recorded as −0.3388 and the “logFC PDK1” value is on record as −0.3388.
